Key:
Botrytis cinerea = assay: Test Example B: Gray mold on tomato; conditions: Gray mold on tomato; control value class
[1] = system: Blumeria graminis f. sp. hordei; assay: Test Example D: Powdery mildew on barley; conditions: Powdery mildew on barley; control value class
[2] = system: Colletotrichum orbiculare; assay: Test Example H: Anthracnose on cucumber; conditions: Anthracnose on cucumber; 250 ppm spray, 6 to 10 days after inoculation
Puccinia recondita = assay: Test Example E: Brown rust on wheat; format: in vivo; conditions: Brown rust on wheat; control value class
Phytophthora infestans = assay: whole plant or invertebrate; format: in vivo; conditions: Late blight on tomato; control value class
Magnaporthe grisea = assay: whole plant or invertebrate; format: in vivo; conditions: Blast on rice; control value class
Plasmopara viticola = assay: Test Example G: Downy mildew on vine; conditions: Downy mildew on vine; 250 ppm spray, 7 to 10 days after inoculation
Alternaia brassicicola = assay: Test Example C: Alternaria sooty spot on cabbage; format: in vivo; conditions: Alternaria sooty spot on cabbage; control value class
Source text: Seeds of a test plant (cabbage variety: Shikidori) were planted and cultivated until the cotyledons extended.
<Control Value> Control value=100{1−(n/3)}

Structure (SMILES)	Test B control value (Botrytis cinerea)	Test D control value [1]	Test H control value [2]	Test E control value (Puccinia recondita)	Test F control value (Phytophthora infestans)	Test A control value (Magnaporthe grisea)	Test G control value (Plasmopara viticola)	Test C control value (Alternaia brassicicola)
CCCCCc1cc(Cl)c(=O)n(CC)c1-c1ccc(F)cc1Cl [compound 209]	H (more than 50% control value)	H (more than 50% control value)	H (more than 50% control value)	H (more than 50% control value)	L (50% or less control value)	H (more than 50% control value)	H (more than 50% control value)	H (more than 50% control value)
CCCCCc1cc(Br)c(=O)n(CC)c1-c1ccc(F)cc1Cl [compound 210]	H (more than 50% control value)	H (more than 50% control value)	H (more than 50% control value)	H (more than 50% control value)	L (50% or less control value)	H (more than 50% control value)	L (50% or less control value)	H (more than 50% control value)
CCn1c(-c2ccc(F)cc2)c(C(O)C(C)C)cc(Cl)c1=O (stereo not shown) [compound 211]	H (more than 50% control value)	L (50% or less control value)	L (50% or less control value)	H (more than 50% control value)	L (50% or less control value)	L (50% or less control value)	L (50% or less control value)	H (more than 50% control value)
CCn1c(-c2ccc(F)cc2)c(C(=O)C(C)C)cc(Cl)c1=O [compound 212]	H (more than 50% control value)	H (more than 50% control value)	L (50% or less control value)	H (more than 50% control value)	L (50% or less control value)	L (50% or less control value)	L (50% or less control value)	H (more than 50% control value)
CCn1c(-c2ccc(F)cc2)c(C(C)(O)C(C)C)cc(Cl)c1=O (stereo not shown) [compound 213]	H (more than 50% control value)	H (more than 50% control value)	H (more than 50% control value)	H (more than 50% control value)	L (50% or less control value)	H (more than 50% control value)	H (more than 50% control value)	H (more than 50% control value)
CCn1c(-c2ccc(F)cc2)c(C(C)(OC)C(C)C)cc(Cl)c1=O (stereo not shown) [compound 214]	H (more than 50% control value)	H (more than 50% control value)	L (50% or less control value)	H (more than 50% control value)	L (50% or less control value)	H (more than 50% control value)	L (50% or less control value)	H (more than 50% control value)
CCOC(C)(c1cc(Cl)c(=O)n(CC)c1-c1ccc(F)cc1)C(C)C (stereo not shown) [compound 215]	L (50% or less control value)	H (more than 50% control value)	L (50% or less control value)	L (50% or less control value)	L (50% or less control value)	L (50% or less control value)	L (50% or less control value)	L (50% or less control value)
CCCOC(C)(c1cc(Cl)c(=O)n(CC)c1-c1ccc(F)cc1)C(C)C (stereo not shown) [compound 216]	L (50% or less control value)	H (more than 50% control value)	L (50% or less control value)	L (50% or less control value)	L (50% or less control value)	L (50% or less control value)	L (50% or less control value)	L (50% or less control value)
CCn1c(-c2ccc(F)cc2)c(C(C)(F)C(C)C)cc(Cl)c1=O (stereo not shown) [compound 217]	H (more than 50% control value)	H (more than 50% control value)	H (more than 50% control value)	H (more than 50% control value)	L (50% or less control value)	H (more than 50% control value)	L (50% or less control value)	H (more than 50% control value)
CCOc1cc(F)c(-c2c(C(=O)C(C)C)cc(Cl)c(=O)n2CC)c(F)c1 [compound 218]	H (more than 50% control value)	H (more than 50% control value)	H (more than 50% control value)	H (more than 50% control value)	L (50% or less control value)	H (more than 50% control value)	H (more than 50% control value)	H (more than 50% control value)
CCn1c(-c2ccc(F)cc2Cl)c(C2CCCC2)ccc1=O [compound 219]	H (more than 50% control value)	H (more than 50% control value)	L (50% or less control value)	H (more than 50% control value)	L (50% or less control value)	H (more than 50% control value)	L (50% or less control value)	H (more than 50% control value)
CCn1c(-c2ccc(F)cc2Cl)c(C2CCCC2)cc(Cl)c1=O [compound 220]	H (more than 50% control value)	H (more than 50% control value)	H (more than 50% control value)	H (more than 50% control value)	L (50% or less control value)	H (more than 50% control value)	H (more than 50% control value)	H (more than 50% control value)
CCn1c(-c2ccc(F)cc2Cl)c(C2CCCC2)cc(Br)c1=O [compound 221]	H (more than 50% control value)	H (more than 50% control value)	L (50% or less control value)	H (more than 50% control value)	L (50% or less control value)	H (more than 50% control value)	L (50% or less control value)	H (more than 50% control value)
CCn1c(-c2ccc(OC)cc2)c(C(=O)C(C)C)cc(Cl)c1=O [compound 222]	H (more than 50% control value)	H (more than 50% control value)	L (50% or less control value)	H (more than 50% control value)	L (50% or less control value)	L (50% or less control value)	L (50% or less control value)	H (more than 50% control value)
CCn1c(-c2ccc(OC)cc2)c(C(C)(O)C(C)C)cc(Cl)c1=O (stereo not shown) [compound 223]	H (more than 50% control value)	L (50% or less control value)	L (50% or less control value)	H (more than 50% control value)	L (50% or less control value)	L (50% or less control value)	L (50% or less control value)	H (more than 50% control value)
CCn1c(-c2ccc(OC)cc2)c(C(C)(OC)C(C)C)cc(Cl)c1=O (stereo not shown) [compound 224]	H (more than 50% control value)	L (50% or less control value)	L (50% or less control value)	H (more than 50% control value)	L (50% or less control value)	L (50% or less control value)	L (50% or less control value)	L (50% or less control value)
CCn1c(-c2ccc(Br)cc2Cl)c(CC(C)C)ccc1=O [compound 225]	H (more than 50% control value)	H (more than 50% control value)	L (50% or less control value)	H (more than 50% control value)	L (50% or less control value)	L (50% or less control value)	L (50% or less control value)	H (more than 50% control value)

From patent US11147272B2, “Pyridone compounds and agricultural and horticultural fungicides comprising the same as active ingredients” (MITSUI CHEMICALS AGRO, INC., priority 2017, dated 2021)
